Here are results for 9 molecules from US20220081415A1, “Amino Acid Derivatives for the Treatment of Inflammatory Diseases” (The Roskamp Institute, priority 2019, published 2022).

The test system of one experiment is NF-kB activation induced by TNFα. The experiment can be described thus: TNFα Luciferase assay: inhibition of NF-kB activation induced by TNFα in HEK293/NF-kB luciferase cells. Format: cell-based. The note with it: 25 ng/ml of TNF-α for four hours, quadruplicate, read-out: IC50, concentration at which NF-kB activation was reduced by 50%. As to the method:
Determination of Inhibition of NF-kB Activation Induced by TNFα . . . In Vitro Assay
The ability of a compound disclosed herein to inhibit NFkB activation induced by TNFα was determined using the TNFα Luciferase assay. The HEK293/NF-kB luciferase cell line was obtained by cotransfection of pNFkB-luc vector with pHyg (Panomics, CA, USA) followed by hygromycin selection. HEK293/NFkB Luciferase cells were grown in DMEM medium supplemented with 10% fetal bovine serum, 100 U/ml of penicillin, 100 ng/ml of streptomycin/Fungizone, and 100 μg/ml of hygromycin B as the selecting agent. HEK293 NFkB Luciferase cells were grown in T75 flasks (Nunc™ Cell Culture Treated EasYFlasks™) in a cell culture incubator at 37° C. and 5% CO2.
Confluent T75 cell culture flasks (approximately 8-10 million of cells per flask) were washed with 10 ml of sterile PBS (without calcium and magnesium) under a biosafety cabinet. After aspiration of the PBS with a sterile glass pipette, the layer of cells (for each T75 flask) was covered with 1 ml of TrypLE™ Express without phenol red (Gibco) at room temperature. After one minute of incubation, HEK293 were mechanically resuspended in the TrypLE by tapping the side of the flask. The cells were then resuspended with 10 ml of pre-warmed complete culture medium and transferred to a conical tube. Cells were centrifuged for 5 minutes at 4000 rpm (1000 g) at room temperature. The cellular pellet was resuspended with 24 ml of pre-warmed cell culture media and […] of cell suspension (approximately 80,000 cells per well) was plated per well in 96-well cell culture plates (Costar #3599, Corning, N.Y., USA) using a multichannel pipette and reversed pipetting to prevent air bubble formation. After plating, the cells were maintained overnight in the cell culture incubator before being treated. For each 96 well cell culture plate, 8 wells were used as “control wells” (only culture medium added) and to 8 wells only TNFα was added. The NF-kB Luciferase reporter cell line was challenged with 25 ng/ml of TNF-α for four hours in the presence and absence (control conditions) of a dose range of the different compounds to be tested. For each compound, a dose range of concentrations was tested in quadruplicate and used to determine an IC50.
Luciferase activity was monitored using the Luc-Screen® Extended-Glow Luciferase Reporter Gene Assay System by chemoluminescence according to the instruction of the manufacturer (Invitrogen) and a BioTek Synergy HT plate reader (BioTek Instruments, VT, USA).
Consider “mixture of 2-((S)-1-oxo-1-((R)-6-(pyridin-3-yl)-5,6-dihydropyridin-1(2H)-yl)butan-2-yl)isoindoline-1,3-dione and 2-((R)-1-oxo-1-((S)-6-(pyridin-3-yl)-5,6-dihydropyridin-1(2H)-yl)butan-2-yl)isoindoline-1,3-dione [Compound 6]”, for which the IC50 worked out at 750 µM.
Regarding “mixture of 2-((S)-1-oxo-1-((S)-6-(pyridin-3-yl)-5,6-dihydropyridin-1(2H)-yl)butan-2-yl)isoindoline-1,3-dione and 2-((R)-1-oxo-1-((R)-6-(pyridin-3-yl)-5,6-dihydropyridin-1(2H)-yl)butan-2-yl)isoindoline-1,3-dione [Compound 5]”, the IC50 was determined as 925 µM.

The experiment is the same for the next values; noted with them: Homo sapiens, 4 h, 25 ng/ml of TNF-α for four hours, quadruplicate, read-out: IC50, concentration at which NF-kB activation was reduced by 50%.
Regarding `CCCCn1cccc1C(=O)N[C@@H](Cc1ccccc1)C(=O)N1CC=CCC1c1cccnc1` (stereo partly drawn) [Compound 61, 1-butyl-N-((2S)-1-oxo-3-phenyl-1-(6-(pyridin-3-yl)-5,6-dihydropyridin-1(2H)-yl)propan-2-yl)-1H-pyrrole-2-carboxamide], the IC50 is 0.708 µM.
Regarding `CCCC(=O)Nc1cccc(C(=O)N[C@@H](Cc2ccccc2)C(=O)N2CCCCC2c2cccnc2)c1` (stereo partly drawn) [Compound 63, 3-butyramido-N-((2S)-1-oxo-3-phenyl-1-(2-(pyridin-3-yl)piperidin-1-yl)propan-2-yl)benzamide], the IC50 is 0.0584 µM.
Consider `CCCC(=O)Nc1cccc(C(=O)N[C@@H](Cc2cccc3ccccc23)C(=O)N2CC=CCC2c2cccnc2)c1` (stereo partly drawn) [Compound 64, 3-butyramido-N-((2 S)-3-(naphthalen-1-yl)-1-oxo-1-(6-(pyridin-3-yl)-5,6-dihydropyridin-1 (2H)-yl)propan-2-yl)benzamide], for which the IC50 is 0.285 µM.
Consider `CCCC(=O)Nc1cccc(C(=O)N[C@@H](Cc2ccc3ccccc3c2)C(=O)N2CC=CCC2c2cccnc2)c1` (stereo partly drawn) [Compound 65, 3-butyramido-N-((2S)-3-(naphthalen-2-yl)-1-oxo-1-(6-(pyridin-3-yl)-5,6-dihydropyridin-1(2H)-yl)propan-2-yl)benzamide], for which the IC50 was 0.704 µM.
For the molecule `CCCC(=O)Nc1cccc(C(=O)N[C@@H](CC2CCCCC2)C(=O)N2CC=CCC2c2cccnc2)c1` (stereo partly drawn) [Compound 66, 3-butyramido-N-((2S)-3-cyclohexyl-1-oxo-1-(6-(pyridin-3-yl)-5,6-dihydropyridin-1(2H)-yl)propan-2-yl)benzamide], the IC50 is 0.346 µM.
`CCCC(=O)Nc1cccc(C(=O)NC(Cc2ccccc2)C(=O)N2CC=CCC2c2cc3ccccc3nc2Cl)c1` (stereo not drawn) [Compound 67, 3-butyramido-N-(1-(2-(2-chloroquinolin-3-yl)-3,6-dihydropyridin-1(2H)-yl)-1-oxo-3-phenylpropan-2-yl)benzamide]: the IC50 turned out to be 1.7 µM.
In the case of `CCCC(=O)Nc1cccc(C(=O)NC(C)C(=O)N2CC=CCC2c2cnc3ccccc3c2)c1` (stereo not drawn) [Compound 68, 3-butyramido-N-(1-oxo-1-(2-(quinolin-3-yl)-3,6-dihydropyridin-1(2H)-yl)propan-2-yl)benzamide], the IC50 was 0.85 µM.
